Source: PMC8765320, “Identification of a Proteasome-Targeting Arylsulfonamide with Potential for the Treatment of Chagas’ Disease” (Antimicrobial Agents and Chemotherapy, 2022)
Read-outs that look alike come from different tables or passages of the source.

Key:
[1] = system: T. cruzi epimastigotes; assay: T. cruzi epimastigote drug sensitivity assay (resazurin); type: cell-based, Trypanosoma cruzi; conditions: for EC50: Trypanosoma cruzi
Method: To examine the effects of test compounds on the growth of T. cruzi epimastigotes, mid-log-phase parasites were seeded into 96-well plates at a cell density of 5 × 10^5 cells ml^−1. Cells were exposed to test compounds over a range of concentrations (2-fold serial dilutions). Cells were incubated for 4 days, and then 20 μl of 2.5 mM resazurin was added to each well, before measuring the fluorescence (excitation, 528 nm; emission, 590 nm), following a further 24 h of incubation. […] In this equation, [I] represents the inhibitor concentration, and m is the slope factor. Experiments were repeated at least two times, and the data are presented as means plus the standard deviations.

[2] = system: T. cruzi amastigotes within Vero cells; assay: Drug sensitivity assay against T. cruzi-infected Vero cells (intracellular amastigotes); type: cell-based, Trypanosoma cruzi; conditions: for EC50: Trypanosoma cruzi, Vero
Method: The clonal Leishmania donovani cell line LdBOB (derived from MHOM/SD/62/1S-CL2D) was grown as either promastigotes or axenic amastigotes in media specific for each developmental stage, as previously described ([32]). T. cruzi epimastigotes from the Silvio strain (MHOM/BR/78/Silvio; clone X10/7A [33]) were grown at 28°C in RTH/FBS (RPMI 1640 medium supplemented with Trypticase, hemin, HEPES, and 10% heat-inactivated fetal calf serum (FCS) [Fisher Scientific]) ([34]). Bloodstream form T. brucei “single marker” S427 (T7RPOL TETR NEO) were cultured in the presence of G418 (15 μg ml^−1) at 37°C in HMI9-T media in the presence of 5% CO2. HepG2 cells (ECACC 85011430) were obtained from European Collection of Authenticated Cell Culture (ECACC). Cells were maintained in full growth medium (minimal essential medium [MEM] with GlutaMAX (Thermo Fisher), supplemented with 1% MEM nonessential amino acids (Sigma) and 10% heat-inactivated FBS and cultured at 37°C in the presence of 5% CO2. Cells were passaged twice weekly by detaching adherent cells with 0.05% trypsin/EDTA (Sigma) and diluted into fresh media. Cells were never grown beyond 80% confluence. Vero cells (African green monkey kidney cells; ECCAC 84113001) were maintained at 37°C, 5% CO2 in Dulbecco modified Eagle medium (DMEM; Lonza) supplemented with 10% FCS and subcultured every 2 days. T. cruzi metacyclic trypomastigotes were obtained from late-log-phase epimastigote cultures (initial inoculum, 10^6 ml^−1) after ca. 7 to 10 days at 28°C in RTH/FBS. Trypomastigote-rich cultures were incubated with Vero cells overnight at 37°C and 5% CO2 in DMEM/10% FCS. The following day, extracellular parasites were removed by washing the Vero cell monolayer three times. Infected monolayers were maintained at 37°C and in 5% CO2, DMEM/10% FCS was replaced every 48 h until the trypomastigotes reemerged from the Vero cells ([9]).
Drug sensitivity assays against T. cruzi-infected Vero cells were carried out as previously described ([37]); however, in this instance, assays were carried out in 96-well plates. Data were processed using GRAFIT (Erithacus software) and fitted to a two-parameter equation, as described above.

O=C(Nc1ccc(F)c(-c2cn3nc(-c4ccccc4)cnc3n2)c1)N1CCCC1 [Compound 2]
EC50 ([1]; cell line Wild type, read-out: Mean EC50 ± SD): 0.04 ± 0.001 µM | EC50 ([1]; read-out: Mean EC50 ± SD, cell line RES I (compound 1-resistant, β5 D225N)): 4 ± 0.08 µM | EC50 ([1]; read-out: Mean EC50 ± SD, cell line RES II (compound 1-resistant, β5 D225N)): 5 ± 0.2 µM | EC50 ([1]; read-out: Mean EC50 ± SD, cell line RES III (compound 1-resistant, β5 D225N)): 5 ± 0.4 µM | EC50 ([1]; read-out: Mean EC50 ± SD, cell line RES IV (compound 1-resistant, no proteasome mutation)): 0.1 ± 0.01 µM | EC50 ([1]; read-out: Mean EC50 ± SD, cell line RES V (compound 1-resistant, β4 I27T)): 0.8 ± 0.03 µM | EC50 ([1]; read-out: Mean EC50 ± SD, cell line Res I-β5 OE (β5 WT overexpressed in RES I)): 0.3 ± 0.01 µM | EC50 ([1]; read-out: Mean EC50 ± SD, cell line β4 F24L/I29M (CRISPR-edited)): > 10 µM | EC50 ([1]; read-out: Mean EC50 ± SD, cell line β5 D225N-OE (overexpressing mutated β5)): 2 ± 0.1 µM | fold change versus the WT ([1]; cell line RES I): 100 fold | fold change versus the WT ([1]; cell line RES II): 125 fold | fold change versus the WT ([1]; cell line RES III): 125 fold | fold change versus the WT ([1]; cell line RES IV): 2.5 fold | fold change versus the WT ([1]; cell line RES V): 20 fold | fold change versus the WT ([1]; cell line Res I-β5 OE): 6.5 fold | fold change versus the WT ([1]; cell line β4 F24L/I29M): > 250 fold | fold change versus the WT ([1]; cell line β5 D225N-OE): 58 fold | susceptibility of CRISPR-edited epimastigotes ([1]; β4 F24L and I29M, at all of the concentrations tested): refractory

CSc1ccc(OCc2ncc([N+](=O)[O-])n2C)cc1 [Fexinidazole, fexinidazole]
EC50 ([2]; in Vero cells, cell line ME OE, (*) one biological replicate, read-out: EC50 values): 5 ± 1 µM | EC50 ([2]; in Vero cells, cell line RES 1, read-out: EC50 values): 8 ± 1 µM | EC50 ([2]; in Vero cells, cell line RES 5, read-out: EC50 values): 4 ± 0.7 µM | EC50 ([2]; in Vero cells, cell line Wild-type, read-out: EC50 values): 4 ± 0.8 µM | EC50 ([2]; in Vero cells, cell line β5 OE rescue R1, (*) one biological replicate, read-out: EC50 values): 4 ± 0.6 µM | EC50 ([2]; read-out: EC50 values, in Vero cells, cell line β4 F24L/I29M): 6 ± 0.6 µM | EC50 ([2]; read-out: EC50 values, in Vero cells, cell line β5 OE): 3 ± 0.3 µM | fold change versus WT ([2]; in Vero cells, cell line ME OE): 1 fold | fold change versus WT ([2]; in Vero cells, cell line RES 1): 2 fold | fold change versus WT ([2]; in Vero cells, cell line RES 5): 1 fold | fold change versus WT ([2]; in Vero cells, cell line Wild-type): 1 fold | fold change versus WT ([2]; in Vero cells, cell line β4 F24L/I29M): 2 fold | fold change versus WT ([2]; in Vero cells, cell line β5 D225N-OE): 1 fold | fold change versus WT ([2]; in Vero cells, cell line β5 OE): 1 fold | fold change versus WT ([2]; in Vero cells, cell line β5 OE rescue R1): 1 fold
